pIC50: −log10 of the molar value. Where two headings read alike, the source gives them in different places.
How the values were obtained:
[1] = molecular target: T1, functional uptake of serotonin (5-HT) (Rattus norvegicus, UniProt P31652); experiment: Inhibition of functional uptake of serotonin (5-HT) into synaptosomes from rat whole brain; format: biochemical
T1 construct: synaptosomes prepared from rat whole brain, hypothalamus, or corpora striata, respectively; from tissue; host or cells: rat whole brain synaptosomes
Experimental: (§1) The 2-hydroxy derivatives of the sibutramine metabolites N-desmethyl and N-didesmethylsibutramine (DMS and DDMS, respectively) were tested for their inhibition of functional uptake of serotonin (5-HT), norepinephrine (NE), or dopamine (DA), into synaptosomes prepared from rat whole brain, hypothalamus, or corpora striata, respectively, using methods known in the art. In addition, binding was determined at the nonselective muscarinic receptor and the […] from rat cerebral cortex and rat adipose tissue, respectively.
(§2) IC50 values (concentration inhibiting control activity by 50 percent) were then determined by nonlinear regression analysis of the inhibition curves and tabulated below.

[2] = molecular target: T2, functional uptake of norepinephrine (NE) (Rattus norvegicus, UniProt Q63380); experiment: Inhibition of functional uptake of norepinephrine (NE) into synaptosomes from rat hypothalamus; format: biochemical
T2 construct: synaptosomes prepared from rat whole brain, hypothalamus, or corpora striata, respectively; from tissue; host or cells: rat hypothalamus synaptosomes
Experimental: as §1, §2

[3] = molecular target: T3, functional uptake of dopamine (DA) (Rattus norvegicus, UniProt P23977); experiment: Inhibition of functional uptake of dopamine (DA) into synaptosomes from rat corpora striata; format: biochemical
T3 construct: synaptosomes prepared from rat whole brain, hypothalamus, or corpora striata, respectively; from tissue; host or cells: rat corpora striata synaptosomes
Experimental: as §1, §2

[4] = molecular target: nonselective muscarinic receptor; experiment: Binding at the nonselective muscarinic receptor from rat cerebral cortex
Experimental: as §1, §2

[5] = synaptosomes from rat hypothalamus, read-out: IC50, NE functional uptake

T1 sequence (P31652 whole entry): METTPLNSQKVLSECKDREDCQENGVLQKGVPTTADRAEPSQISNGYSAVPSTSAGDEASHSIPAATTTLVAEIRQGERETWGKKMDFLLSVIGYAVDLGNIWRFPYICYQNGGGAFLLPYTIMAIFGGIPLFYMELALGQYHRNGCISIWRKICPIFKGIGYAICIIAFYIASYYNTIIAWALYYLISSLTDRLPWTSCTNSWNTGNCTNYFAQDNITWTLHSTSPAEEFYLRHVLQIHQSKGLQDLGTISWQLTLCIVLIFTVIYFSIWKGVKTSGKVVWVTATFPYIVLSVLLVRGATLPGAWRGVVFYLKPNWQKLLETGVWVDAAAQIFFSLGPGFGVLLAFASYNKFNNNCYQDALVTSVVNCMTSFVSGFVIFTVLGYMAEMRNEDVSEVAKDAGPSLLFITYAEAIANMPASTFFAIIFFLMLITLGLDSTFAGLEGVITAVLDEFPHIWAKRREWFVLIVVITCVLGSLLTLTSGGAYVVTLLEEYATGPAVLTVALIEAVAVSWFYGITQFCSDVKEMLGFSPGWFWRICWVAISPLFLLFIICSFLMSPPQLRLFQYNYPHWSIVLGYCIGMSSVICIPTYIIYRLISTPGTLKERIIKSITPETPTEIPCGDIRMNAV
T2 sequence (Q63380 1-617): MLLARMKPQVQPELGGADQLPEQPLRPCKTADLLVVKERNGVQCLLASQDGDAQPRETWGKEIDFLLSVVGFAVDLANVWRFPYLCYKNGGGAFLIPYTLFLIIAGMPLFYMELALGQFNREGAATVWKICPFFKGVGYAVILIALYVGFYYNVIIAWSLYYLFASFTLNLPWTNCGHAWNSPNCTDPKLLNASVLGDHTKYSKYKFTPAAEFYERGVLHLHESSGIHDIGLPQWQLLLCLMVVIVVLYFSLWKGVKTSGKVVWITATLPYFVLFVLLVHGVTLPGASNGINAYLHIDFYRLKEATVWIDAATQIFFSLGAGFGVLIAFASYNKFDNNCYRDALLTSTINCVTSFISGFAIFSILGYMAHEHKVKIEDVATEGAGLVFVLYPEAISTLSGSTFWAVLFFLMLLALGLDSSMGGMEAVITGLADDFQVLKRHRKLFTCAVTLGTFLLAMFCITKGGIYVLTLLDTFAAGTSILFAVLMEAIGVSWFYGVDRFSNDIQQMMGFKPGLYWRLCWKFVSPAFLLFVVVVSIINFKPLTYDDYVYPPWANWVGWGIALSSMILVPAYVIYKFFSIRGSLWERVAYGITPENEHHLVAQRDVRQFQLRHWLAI
T3 sequence (P23977 whole entry): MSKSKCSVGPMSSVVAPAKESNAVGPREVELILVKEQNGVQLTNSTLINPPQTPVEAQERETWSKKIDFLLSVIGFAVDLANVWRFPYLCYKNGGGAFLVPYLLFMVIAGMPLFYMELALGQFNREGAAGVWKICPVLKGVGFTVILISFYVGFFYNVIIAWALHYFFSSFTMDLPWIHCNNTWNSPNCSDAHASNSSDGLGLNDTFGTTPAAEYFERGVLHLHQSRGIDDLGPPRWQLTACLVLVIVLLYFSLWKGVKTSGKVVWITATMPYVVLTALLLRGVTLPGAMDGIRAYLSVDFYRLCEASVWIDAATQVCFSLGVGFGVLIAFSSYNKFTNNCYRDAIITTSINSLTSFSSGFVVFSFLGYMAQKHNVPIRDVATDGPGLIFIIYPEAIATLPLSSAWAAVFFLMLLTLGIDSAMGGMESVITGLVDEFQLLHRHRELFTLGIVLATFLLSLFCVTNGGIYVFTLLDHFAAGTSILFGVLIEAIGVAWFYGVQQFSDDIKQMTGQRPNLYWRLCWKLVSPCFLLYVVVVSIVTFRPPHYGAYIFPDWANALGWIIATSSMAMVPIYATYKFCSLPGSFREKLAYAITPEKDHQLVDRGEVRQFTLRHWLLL

Compound | pIC50 [1] | pIC50 [2] | pIC50 [3] | pIC50 [4] | pIC50 [2, 5]
CN[C@H](CC(C)(C)O)C1(c2ccc(Cl)cc2)CCC1 [2-(R)-OH-DMS, (R)-(+)-4-[1-(4-Chloro-phenyl)-cyclobutyl]-2-methyl-4-methylamino-butan-2-ol] | 7.66 | 7.64 | 7.32 | 5.05 | 
CC(C)(O)C[C@@H](N)C1(c2ccc(Cl)cc2)CCC1 [2-(R)-OH-DDMS, (R)-(−)-4-amino-[1-(4-chlorophenyl)cyclobutyl]-2-methyl-butan-2-ol] | 8.14 |  | 7.74 |  | 8.21
CC(C)(O)C[C@H](N)C1(c2ccc(Cl)cc2)CCC1 [2-(S)-OH-DDMS, (S)-(+)-4-amino-[1-(4-chlorophenyl)cyclobutyl]-2-methyl-butan-2-ol] | 6.17 |  | 7.23 |  | 7.15
CN[C@@H](CC(C)(C)O)C1(c2ccc(Cl)cc2)CCC1 [2-(S)-OH-DMS] | 5.27 | 6.51 | 6.43 | 5.35 | 
CN1[C@@H]2CC[C@H]1C[C@@H](OC(=O)C(CO)c1ccccc1)C2 (stereo partly drawn) [Atropine, reference compound] |  |  |  | 9.42 | 

From patent US20030087963A1, “Methods of preparing and using 2-hydroxy derivatives of sibutramine and its metabolites” (priority 2001, published 2003)
